For experiment [1], the target named is T1, mouse Nurr1 receptor (Mus musculus, UniProt Q06219).
T1 construct: On a cell line (N2A) endogenously expressing the mouse Nurr1 receptor; host or cells: Neuro-2A (N2A) mouse neuroblastoma cells stably transfected with 8NBRE-luciferase
Kind of experiment: In vitro activity on N2A cells (NBRE-luciferase reporter). Format: cell-based. The settings on record: N2A cell line endogenously expressing mouse Nurr1, stably transfected with 8NBRE-luciferase; 24 hours incubation. How it is done: Evaluation of the In Vitro Activity on N2A Cells
On a cell line (N2A) endogenously expressing the mouse Nurr1 receptor and stably transfected with the NOT binding response element (NBRE) coupled to the luciferase reporter gene. The EC50 values are between 0.01 and 1000 nM. The assays were carried out according to the procedure described below.
The Neuro-2A cell line comes from a standard commercial source (ATCC). The Neuro-2A clone was obtained, from a spontaneous tumor originating from an A albino mouse strain, by R. J Klebe et al. This Neuro-2A line is subsequently stably transfected with 8NBRE-luciferase. The N2A-8NBRE cells are cultured until confluence in 75 cm^2 culture flasks containing DMEM supplemented with 10% of fetal calf serum, 4.5 g/l of glucose and 0.4 mg/ml of geneticin. After a week of culture, the cells are recovered with 0.25% trypsin for 30 seconds and then resuspended in DMEM without phenol red, containing 4.5 g/l of glucose and 10% of Hyclone delipidized serum, and deposited into transparent-bottom 96-well white plates. The cells are deposited at a rate of 60 000 per well in 75 μl for 24 hours before the addition of the products. The products are applied in 25 μl and incubated for a further 24 hours. On the day of the measurement, an equivalent volume (100 μl) of Steadylite is added to each well and then left for a period of 30 minutes in order to obtain complete cell lysis and maximum signal production. The plates are subsequently measured in a luminescence counter for microplates after having been sealed with an adhesive film. The products are prepared in the form of a stock solution at 10^−2M and then diluted in 100% of DMSO. Each product concentration is prediluted in culture medium before incubation with the cells, thus containing 0.625% final concentration of DMSO.

The subject of experiment [2] is human NOT receptor. Kind of experiment: Binding to the human NOT receptor by SPR (surface plasmon resonance). The settings on record: Biacore S51, immobilized GST-NOT whole protein and NOT ligand-binding domain, 3.75 to 0.1 μM, 4° C. The protocol: Evaluation of the Binding to the Human NOT Receptor
The direct binding between compounds of the invention and the human NOT receptor was evaluated using SPR (surface plasmon resonance) technology. In this assay, the protein is immobilized covalently at the matrix and the molecule to be studied is injected into the chamber comprising the sensor chip. The signal is directly proportional to the amount of product bound to the protein. The binding assays were carried out in a Biacore S51 instrument (Biacore Inc., Piscataway, N.J.). The GST-NOT (NOT-FL) whole protein was provided by Invitrogen (PV3265). The NOT ligand-binding domain (His-Thr-NOT 329-598) was expressed and purified as described in Nature, 423, 555-560. The two proteins, diluted to a concentration of 20 μg/ml in an acetate buffer, pH 5.0, containing 5 mM of DTT, were immobilized on a carboxymethyl 5′ dextran surface (CM5 sensor chip, Biacore Inc.) by amine coupling according to the protocol recommended by Biacore, elution being carried out with an HBS-N buffer (10 mM HEPES, 0.15 M NaCl, […], pH 7.4). Approximately 10 000-15 000 resonance units (RU) of the proteins are captured on the surface of the CM5 sensor chip. […] The dissociation was recorded for 5 minutes without any other procedure for regenerating the surface. […]

T1 sequence (Q06219 whole entry): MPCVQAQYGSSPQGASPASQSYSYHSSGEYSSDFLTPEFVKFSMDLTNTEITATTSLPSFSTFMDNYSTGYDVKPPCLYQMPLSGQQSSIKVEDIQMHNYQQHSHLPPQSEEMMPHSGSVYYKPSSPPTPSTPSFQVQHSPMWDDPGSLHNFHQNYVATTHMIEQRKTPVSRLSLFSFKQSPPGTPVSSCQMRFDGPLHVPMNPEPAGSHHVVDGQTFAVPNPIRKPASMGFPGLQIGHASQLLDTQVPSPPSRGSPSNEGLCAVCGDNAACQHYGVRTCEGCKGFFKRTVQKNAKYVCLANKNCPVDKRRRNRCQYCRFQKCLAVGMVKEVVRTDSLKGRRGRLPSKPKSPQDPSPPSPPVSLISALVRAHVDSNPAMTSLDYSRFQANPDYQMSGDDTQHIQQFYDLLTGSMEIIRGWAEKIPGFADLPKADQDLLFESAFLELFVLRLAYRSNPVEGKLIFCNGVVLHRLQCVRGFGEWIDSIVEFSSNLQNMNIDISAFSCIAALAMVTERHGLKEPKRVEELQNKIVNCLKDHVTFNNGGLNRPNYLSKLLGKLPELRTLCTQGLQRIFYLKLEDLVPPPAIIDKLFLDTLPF

In turn, `CC(C)(O)c1ccc2nc(C(=O)Nc3ccccc3)cn2c1` [Compound 4, 6-(1-Hydroxy-1-methylethyl)-N-phenylimidazo[1,2-a]pyridine-2-carboxamide] registered an EC50 in experiment [1] of 0.66 nM.

For `O=C(Nc1ccccc1)c1cn2cc(-c3ccccc3)ccc2n1` [Compound 7, N,6-Diphenylimidazo[1,2-a]pyridine-2-carboxamide], the “affinity (direct binding, classified by maximum binding level and kinetic parameters)” value in experiment [2] was “moderate”. In experiment [1], this compound had an EC50 of 0.9 nM.

For the compound `Cc1ccc2nc(C(=O)Nc3ccccc3)cn2c1` [Compound 19, 6-Methyl-N-phenylimidazo[1,2-a]pyridine-2-carboxamide], the “affinity (direct binding, classified by maximum binding level and kinetic parameters)” value in experiment [2] is listed as “low”. Moreover, in experiment [1], the half-maximal effective concentration (EC50) came out at 0.6 nM.

Turning to `COc1ccc2nc(C(=O)Nc3ccccc3)cn2c1` [Compound 29, 6-Methoxy-N-phenylimidazo[1,2-a]pyridine-2-carboxamide], in experiment [1], a half-maximal response (EC50) required 1.3 nM.

For `C=C(C)c1ccc2nc(C(=O)Nc3ccccc3)cn2c1` [Compound 32, 6-Isopropenyl-N-phenylimidazo[1,2-a]pyridine-2-carboxamide], the EC50 in experiment [1] is 0.06 nM.

`Cc1ccc2nc(C(=O)Nc3ccccc3)cn2c1C` [Compound 43, 5,6-Dimethyl-N-phenylimidazo[1,2-a]pyridine-2-carboxamide] came in with an EC50 in experiment [1] of 0.3 nM.

Turning to `CN(C)c1ccc2nc(C(=O)Nc3cc(F)ccc3F)cn2c1` [Compound 58, N-(2,5-Difluorophenyl)-6-(dimethylamino)imidazo[1,2-a]pyridine-2-carboxamide], the response in experiment [1] was half-maximal at 1.3 nM (EC50).

As to `O=C(Nc1ccccc1F)c1cn2cc(-c3cccc(CO)c3)ccc2n1` [Compound 67, N-(2-Fluorophenyl)-6-[3-(hydroxymethyl)phenyl]imidazo[1,2-a]pyridine-2-carboxamide], in experiment [1], it took 0.7 nM to reach a half-maximal effect (EC50).

`O=C(Nc1ccccc1)c1cn2cc(N3CCC3)ccc2n1` [Compound 70, 6-(Azetidin-1-yl)-N-phenylimidazo[1,2-a]pyridine-2-carboxamide] showed an EC50 in experiment [1] of 0.16 nM.

These data come from patent US8404848B2, “Derivatives of imidazo[1,2-a]pyridine-2-carboxamides, preparation method thereof and use of same in therapeutics” (Sanofi, priority 2006, dated 2013).
